Measured values as given in PMC5571359, “Screening the Medicines for Malaria Venture Pathogen Box across Multiple Pathogens Reclassifies Starting Points for Open-Source Drug Discovery” (Antimicrobial Agents and Chemotherapy, 2017).
Read-outs that look alike come from different tables or passages of the source.

What was measured:
liver stage = details: cited from earlier work
[1] = test system: T. b. brucei 427 bloodstream trypanosomes; assay: T. b. brucei resazurin viability assay; type: cell-based, Trypanosoma brucei brucei; details: Trypanosoma brucei
[2] = test system: NF54-pfs16-LUC-GFP stage IV gametocytes; assay: Plasmodium falciparum late stage gametocyte (LSG) image-based assay; type: cell-based; details: for IC50: Plasmodium falciparum
[3] = test system: P. falciparum stage V gametocytes; details: cited from earlier work; for IC50 / PF stage V GAMS PBox IC50 µM: stage V gametocytes; for IC50: read-out: PF stage V GAMS PBox IC50
HepG2 = details: read-out: HepG2 PBox CC50 µM, cited from earlier work
P. falciparum ABS = details: cited from earlier work; for EC50: ChEMBL Data; for IC50: read-out: Pf 3D7 Pbox IC50
[4] = test system: Plasmodium falciparum 3D7 asexual blood stage; assay: microbe, parasite or virus in culture
[5] = test system: L. donovani MHOM/IN/80/DD8 intracellular amastigotes; assay: Leishmania donovani intracellular amastigote assay in THP-1 cells; type: cell-based; details: Leishmania donovani, THP-1; PBox compounds, intracellular amastigotes; read-out: IC50 L. donovani (Discovery Biology)
HEK293 cells = assay: HEK293 resazurin cell cytotoxicity assay; details: Homo sapiens
[6] = liver stage, ref Pathogen Box supporting information, read-out: LIVER STAGE Pbox IC50
[7] = ref Pathogen Box supporting information
[8] = HepG2 CC50, ref Pathogen Box supporting information
[9] = TCMDC, read-out: TCMDC (ref 93) EX50
[10] = Pf 3D7, ref Pathogen Box supporting information
[11] = NF54, read-out: Pf Stage IV GAMS Discovery Biology IC50 µM, stage IV gametocytes, Discovery Biology
[12] = 3D7, read-out: Pf 3D7 Discovery Biology IC50 µM, P. falciparum 3D7 asexual blood stage, Discovery Biology
[13] = read-out: T b.brucei Discovery Biology IC50
[14] = HEK293, read-out: HEK % Inhibition 20uM/IC50 Discovery Biology (IA)
[15] = ref Pbox supporting information
[16] = NF54, read-out: Pf Stage IV GAMS Discovery Biology IC50 µM, stage IV gametocytes
[17] = ref PBox supporting information
[18] = 3D7, read-out: Pf 3D7 Discovery Biology IC50 µM, P. falciparum 3D7 asexual blood stage
[19] = P. falciparum 3D7, ref PBox supporting information

SMILES | IC50 (liver stage; [6]) [nM] | IC50 [3, 7] [nM] | CC50 (HepG2; [8]) [µM] | EC50 (P. falciparum ABS; [9]) [nM] | IC50 (P. falciparum ABS; [10]) [nM] | IC50 [2, 11] [µM] | IC50 [4, 12] [µM] | IC50 (HEK293 cells; [14]) [µM] | IC50 [2, 16] [µM] | IC50 (P. falciparum ABS; [19]) [nM] | other results
CN(C)c1cc(NC(=O)Nc2ccccc2)c2ccccc2n1 [MMV006901] | > 10000 | 3130 | > 10 | 410 | 600 |  |  |  |  |  | IC50 ([1]; PBox compounds, read-out: IC50 T. brucei brucei (Discovery Biology)): 3.36 µM; activity in the Discovery Biology stage IV gametocyte (LSG) assay [2]: only moderately active; EC50 (P. falciparum ABS; NITD, read-out: NITD (ref 94) EC50): 150 nM
COc1ccc(-c2cnc3ccc(NCc4ccc(S(N)(=O)=O)cc4)nn23)cn1 [MMV010545] | 6800 | 1030 | > 10 | 870 | 490 | 1.17 | 0.58 |  |  |  | 
COc1cc(-c2cc(-c3ccc(S(C)(=O)=O)cc3)cnc2N)ccc1O [MMV010576] | 2520 | 66 | > 10 | 100 | 100 | 0.15 | 0.07 |  |  |  | IC50 [5]: 5.18 µM
Cc1ccc2c(c1C)NC(=O)C21NN=C(c2ccccc2)S1 (centres unmarked) [MMV019189] | 880 | 900 | > 7.5 | 750 | 1130 | 1.97 | 2.28 |  |  |  | IC50 [1, 13]: 4.68 µM
CCN(CC)S(=O)(=O)c1ccc(Cl)c(C(=O)Nc2ccc3nc(C)sc3c2)c1 [MMV019721] | 1310 | 3910 | > 10 | 800 | 500 | 0.79 | 0.78 |  |  |  | 
NS(=O)(=O)c1cccc(-c2ccc3ncc(N4CCOCC4)nc3c2)c1 [MMV023860] | 1820 | 1330 | > 10 | 990 | 1500 | 2.13 | 0.89 |  |  |  | inhibition at 20 µM (HEK293 cells; HEK293, read-out: HEK % Inhibition 20uM/IC50 Discovery Biology): 40%
COc1ccc(-c2cnc3ccc(N4CCCC4)nn23)cc1OC [MMV023985] | 630 | 410 | > 10 | 770 | 700 | 5.83 | 1.99 |  |  |  | 
O=C(Nc1ccccc1)c1ccc(-c2cc3ccncc3cc2OC2CCNCC2)s1 [MMV024035] | 7370 | 2280 | > 7.5 | 650 | 570 | 4.48 | 0.31 |  |  |  | IC50 (HEK293 cells; HEK293, read-out: HEK % Discovery Biology IC50 uM): 6.67 µM; IC50 [1, 13]: 2.72 µM
CCn1ncc2c(NC3CCOCC3)c(CNC(=O)c3ccnn3C)c(C)nc21 [MMV026356] |  |  |  |  |  |  |  | > 20 | 0.74 | 280 | IC50 (liver stage; [15]): 1600 nM; IC50 [3, 17]: 240 nM; CC50 (HepG2; [17]): > 10 µM; IC50 [4, 18]: 0.27 µM; EC50 (P. falciparum ABS; P. falciparum, read-out: TCMDC (ref 93) EX50): 530 nM
N#Cc1ccc(-c2cnc(N)c(-c3ccc(C(N)=O)cc3)n2)cc1 [MMV085499] |  |  |  |  |  |  |  | > 20 | 0.55 | 95 | IC50 (liver stage; [15]): 280 nM; IC50 [3, 17]: 140 nM; CC50 (HepG2; [17]): > 10 µM; IC50 [4, 18]: 0.19 µM; EC50 (P. falciparum ABS; P. falciparum, read-out: NITD (ref 94) EC50): 60 nM
c1ccc(-c2cc(N3CCCCC3)c3ccccc3n2)nc1 [MMV560185] |  |  |  |  |  |  |  | > 20 | 0.71 | > 2000 | IC50 (liver stage; [15]): 9700 nM; activity in the Discovery Biology stage IV gametocyte (LSG) assay [2]: demonstrate activity; activity against gametocytes (stage V), PBox supporting information [3, 15]: demonstrate activity; IC50 [3, 17]: 510 nM; CC50 (HepG2; [17]): > 10 µM
O=C(NCCN1CCCC1)c1cc(NCCN2CCOCC2)nc2ccc(Cl)cc12 [MMV634140] |  |  |  |  |  |  |  | > 20 | 0.39 | 100 | LIVER STAGE Pbox IC50 µM (liver stage; [15]): KTBA; PF stage V GAMS PBox IC50 µM [3, 17]: KTBA; IC50 [4, 18]: 0.09 µM
O=C(NCCN1CCCC1)c1cc(NCCCCN2CCC(F)(F)CC2)nc2ccc(Cl)cc12 [MMV667494] |  |  |  |  |  |  |  | > 20 | 0.12 | 7 | LIVER STAGE Pbox IC50 µM (liver stage; [15]): KTBA; PF stage V GAMS PBox IC50 µM [3, 17]: KTBA; IC50 ([4]; 3D7, read-out: Pf 3D7 Discovery Biology IC50, P. falciparum 3D7 asexual blood stage, nM): < 0.01 µM
